From ChEMBL document CHEMBL3860047, “Modulating the strength of hydrogen bond acceptors to achieve low Caco2 efflux for oral bioavailability of PARP inhibitors blocking centrosome clustering” (Bioorg Med Chem Lett, 2016)

Experiment: Dissociation constant, pKa of the compound
Assay type: physicochemical

SMILES	pKa
CN(C)C(=O)c1ccccc1	1.2
NCc1ccccc1 [BENZYLAMINE]	9.6
C[S+](C)[O-] [DIMETHYL SULFOXIDE]	1.54
c1ccnnc1 [PYRIDAZINE]	2.24
